Key:
[1] = Microsomal stability assay, human; type: in vitro ADME; settings: metabolic stability, human liver microsomes 0.5 mg/mL, substrate 3 uM
Experimental: (§1) The micorsomal stability assay is generally performed as follows. Format: 15 compounds (and 1 control verapamil) in 3 different species in duplicate sets Substrate: 3 uM Protein concentration: 0.5 mg/mL (for dog, rat, and human liver microsomes) Cofactor: 1×NADPH-Regenerating system Time-points: 2, 12, 25, 45, and 65 minutes [table] Sample preparation: 25 uL at each timepoint is added to plate with 225 uL quenching solution (50% MeOH, 25% ACN, 25% H2O, and 50 nM […]). After plates are vortexed, centrifuge for 30 minutes. Microsomal solutions: take 400 uL of 20 mg/mL microsomes and add to 13,680 uL 100 mM KPO4 buffer. Using an 8-channel, add 650 uL of this solution to the designated two columns on a short plate. The order should be dog microsomes in columns 1 and 2, rat microsomes in columns 3 and 4, and human microsomes in columns 5 and 6. Keep on ice before use. Place this plate in incubator 1 on the TECAN countertop.

[2] = target: wild-type human cardiac sodium channel, hNav1.5 (late INa) (Homo sapiens, UniProt Q14524); test: Late INa screening assay (QPatch whole cell patch clamp); type: cell-based; settings: percent block of late INa, compound at 1 μM, 10 μM Tefluthrin, HEK293 hNav1.5; read-out: Late INa 1 μM
Experimental: The late sodium current (Late INa) and peak sodium current (Peak INa) assays are performed on an automated electrophysiology platform, QPatch 16× (Sophion Bioscience, Copenhagen, Denmark), which uses the whole cell patch clamp technique to measure currents through the cell membrane of up to 16 cells at a time. The assay uses an HEK293 (human embryonic kidney) cell line heterologously expressing the wild-type human cardiac sodium channel, hNav1.5, purchased from Millipore (Billerica, Mass.). No beta subunits were coexpressed with the Na channel alpha subunit. Cells are maintained with standard tissue culture procedures and stable channel expression is maintained with 400 μg/mL Geneticin in the culture medium. […] Experiments are carried out at 23-25° C. For both the Late INa and Peak INa assays, series resistance compensation is set to 100% and series resistance and whole-cell compensation are performed automatically. Currents are digitized at 25 kHz and low-pass filtered at 12 kHz and 10 kHz for the late and peak INa assays, respectively. Currents through open sodium channels are automatically recorded and stored in the Sophion Bioscience Oracle database (Sophion Bioscience, Copehagen, Denmark). Analysis is performed using QPatch Assay and database software and data are compiled in Excel. Compound stocks are routinely made by the Gilead Sample Bank in plastic vials to 10 mM in dimethyl sulfoxide (DMSO). In some cases, when compounds are not soluble in DMSO, they are made in 100% ethanol. Stocks are sonicated as necessary. […] The intracellular solution used to perfuse the inside of the cells for both the Late INa and Peak INa assays contains: 120 mM CsF, 20 mM CsCl, 5 mM EGTA, 5 mM HEPES and pH adjusted to 7.4 with CsOH. Compounds are diluted in extracellular solution to 1 μM in glass vials and then transferred to glass well plates before robotic addition to the cells. […] For the Late INa assay, sodium channels are activated every 10 seconds (0.1 Hz) by depolarizing the cell membrane to −20 mV for 250 milliseconds (ms) from a holding potential of −120 mV. In response to a −20 mV voltage step, typical hNav1.5 sodium currents activate rapidly to a peak negative current and then inactivate nearly completely within 3-4 ms. All compounds were tested to determine their activity in blocking the late sodium current. Late INa was generated by adding 10 μM Tefluthrin (pyrethroid) to the extracellular solution while recording Na currents. To confirm the block of late INa observed using the automated screening method, a second late INa enhancer (ATX-II) and the manual patch clamp method were used. ATX-II and tefluthrin occupy distinct, non-overlapping binding sites and modify Na^+ channel function differently to increase late INa. […] For the purposes of the screening, late INa is defined as the mean current between 225 ms and 250 ms after stepping to −20 mV to activate Na channels. […] Results are reported as percent block of late INa.

[3] = Microsomal stability assay, rat; type: in vitro ADME; settings: metabolic stability, rat liver microsomes 0.5 mg/mL, substrate 3 uM
Experimental: as §1

[4] = Microsomal stability assay, dog; type: in vitro ADME; settings: metabolic stability, dog liver microsomes 0.5 mg/mL, substrate 3 uM
Experimental: as §1

Sequence of wild-type human cardiac sodium channel, hNav1.5 (late INa) (Q14524 whole entry): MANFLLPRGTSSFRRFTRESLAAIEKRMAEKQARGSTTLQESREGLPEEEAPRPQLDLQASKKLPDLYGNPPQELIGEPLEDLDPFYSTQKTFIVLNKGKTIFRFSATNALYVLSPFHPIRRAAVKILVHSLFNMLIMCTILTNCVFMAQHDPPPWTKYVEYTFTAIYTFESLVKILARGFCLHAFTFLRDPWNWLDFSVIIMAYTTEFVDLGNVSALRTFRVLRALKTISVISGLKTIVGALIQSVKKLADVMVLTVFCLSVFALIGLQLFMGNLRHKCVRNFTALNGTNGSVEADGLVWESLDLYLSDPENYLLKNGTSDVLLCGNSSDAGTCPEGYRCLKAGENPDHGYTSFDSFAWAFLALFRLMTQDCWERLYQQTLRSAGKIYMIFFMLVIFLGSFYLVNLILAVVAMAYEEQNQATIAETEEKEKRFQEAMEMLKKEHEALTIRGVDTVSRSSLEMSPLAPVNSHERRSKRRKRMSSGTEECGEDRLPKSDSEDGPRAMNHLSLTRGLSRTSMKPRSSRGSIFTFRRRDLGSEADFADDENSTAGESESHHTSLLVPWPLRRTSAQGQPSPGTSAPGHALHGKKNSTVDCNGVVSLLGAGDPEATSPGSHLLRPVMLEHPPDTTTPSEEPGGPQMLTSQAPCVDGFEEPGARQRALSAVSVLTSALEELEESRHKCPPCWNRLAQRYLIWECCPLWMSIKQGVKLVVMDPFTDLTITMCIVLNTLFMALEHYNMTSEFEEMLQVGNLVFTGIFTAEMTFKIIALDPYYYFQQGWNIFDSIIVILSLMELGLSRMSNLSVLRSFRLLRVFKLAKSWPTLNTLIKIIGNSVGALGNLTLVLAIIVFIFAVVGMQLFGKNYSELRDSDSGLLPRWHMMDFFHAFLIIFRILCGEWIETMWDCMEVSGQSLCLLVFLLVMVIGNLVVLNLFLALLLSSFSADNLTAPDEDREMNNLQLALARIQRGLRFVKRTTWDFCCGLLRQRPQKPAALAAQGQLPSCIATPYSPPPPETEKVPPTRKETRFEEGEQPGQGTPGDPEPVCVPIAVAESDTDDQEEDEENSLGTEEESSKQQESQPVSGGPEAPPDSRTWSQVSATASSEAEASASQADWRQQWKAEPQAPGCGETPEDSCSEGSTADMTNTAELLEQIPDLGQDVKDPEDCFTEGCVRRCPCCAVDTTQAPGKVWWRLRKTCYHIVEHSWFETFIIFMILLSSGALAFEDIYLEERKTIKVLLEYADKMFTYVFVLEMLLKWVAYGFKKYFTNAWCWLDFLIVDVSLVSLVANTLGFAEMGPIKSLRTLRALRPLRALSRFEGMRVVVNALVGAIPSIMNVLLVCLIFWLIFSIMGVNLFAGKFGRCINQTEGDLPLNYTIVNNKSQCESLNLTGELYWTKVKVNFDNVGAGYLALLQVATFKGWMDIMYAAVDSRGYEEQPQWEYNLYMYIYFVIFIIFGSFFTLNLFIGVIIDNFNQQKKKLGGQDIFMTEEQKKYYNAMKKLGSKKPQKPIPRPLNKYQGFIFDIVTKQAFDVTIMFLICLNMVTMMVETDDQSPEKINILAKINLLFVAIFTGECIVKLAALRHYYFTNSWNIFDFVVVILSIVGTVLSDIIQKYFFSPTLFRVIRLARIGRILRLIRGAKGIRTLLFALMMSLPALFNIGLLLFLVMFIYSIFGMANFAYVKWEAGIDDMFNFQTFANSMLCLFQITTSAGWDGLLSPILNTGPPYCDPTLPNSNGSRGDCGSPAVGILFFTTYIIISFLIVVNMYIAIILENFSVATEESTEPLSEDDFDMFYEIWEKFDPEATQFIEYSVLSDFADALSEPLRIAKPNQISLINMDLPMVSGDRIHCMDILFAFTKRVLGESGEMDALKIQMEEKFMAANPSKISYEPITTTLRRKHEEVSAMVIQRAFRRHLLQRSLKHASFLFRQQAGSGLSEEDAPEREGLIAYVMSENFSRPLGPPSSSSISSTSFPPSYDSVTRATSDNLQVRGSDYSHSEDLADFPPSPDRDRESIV

Row | Structure (SMILES) | MS Human THalf [1] | inhibition at 1 µM [2] | MS Rat THalf [3] | MS Dog THalf [4]
1 | Cc1nc(Cn2ncc3ccc(-c4ccc(OC(F)(F)F)cc4)cc3c2=O)no1 [III-3, 2-((5-methyl-1,2,4-oxadiazol-3-yl)methyl)-7-(4-(trifluoromethoxy)phenyl)phthalazin-1(2H)-one] | > 395 min | 42% | 104 min | 122 min
2 | CN(C(=O)N1CCc2ccc(-c3ccc(C(F)(F)F)cc3)cc2C1)c1ccccc1 [IX-50, N-methyl-N-phenyl-7-(4-(trifluoromethyl)phenyl)-3,4-dihydroisoquinoline-2(1H)-carboxamide] | 61 min | 29% | 9 min | 96 min
3 | Cn1ccnc1C(=O)N1CCc2ccc(-c3ccc(C(F)(F)F)cc3)cc2C1 [IX-80, (1-methyl-1H-imidazol-2-yl)(7-(4-(trifluoromethyl)phenyl)-3,4-dihydroisoquinolin-2(1H)-yl)methanone] | 170 min | 40% | 7 min | 197 min
4 | O=c1c2cc(-c3ccc(OC(F)(F)F)cc3)ccc2cnn1CCc1ccncn1 [III-36, 2-(2-(pyrimidin-4-yl)ethyl)-7-(4-(trifluoromethoxy)phenyl)phthalazin-1 (2H)-one] | 46 min | 39% | 32 min | 31 min
5 | O=c1c2cc(-c3ccc(OC(F)(F)F)cc3)ccc2nnn1CCn1ccc(C(F)(F)F)n1 [II-52, 6-(4-(trifluoromethoxy)phenyl)-3-(2-(3-(trifluoromethyl)-1H-pyrazol-1-yl)ethyl)benzo[d][1,2,3]triazin-4(3H)-one] | 319 min | 32% | 118 min | 76 min
6 | O=c1c2cc(-c3cnc(N4CCCCC4)nc3)ccc2nnn1CCOc1ncccn1 [Compound V-12, 6-(2-(piperidin-1-yl)pyrimidin-5-yl)-3-(2-(pyrimidin-2-yloxy)ethyl)benzo[d][1,2,3]triazin-4(3H)-one] | 9 min | 26% | 11 min | 5 min
7 | CCOC(=O)N1CCC(=O)C(n2nnc3ccc(-c4ccc(OC(F)(F)F)cc4)cc3c2=O)C1 (stereo not shown) [II-72, ethyl 4-oxo-3-(4-oxo-6-(4-(trifluoromethoxy)phenyl)benzo[d][1,2,3]triazin-3(4H)-yl)piperidine-1-carboxylate] | 11 min | 31% | 8 min | 6 min
8 | Cc1ccn(CCn2ncc3ccc(-c4ccc(OC(F)(F)F)cc4)cc3c2=O)n1 [III-17, 2-(2-(3-methyl-1H-pyrazol-1-yl)ethyl)-7-(4-(trifluoromethoxy)phenyl)phthalazin-1 (2H)-one] | 34 min | 49% | 22 min | 28 min
9 | Cc1cccc(CCn2ncc3ccc(-c4ccc(OC(F)(F)F)cc4)cc3c2=O)n1 [III-18, 2-(2-(6-methylpyridin-2-yl)ethyl)-7-(4-(trifluoromethoxy)phenyl)phthalazin-1 (2H)-one] | 25 min | 37% | 20 min | 23 min
10 | N#CC1(c2ccc(-c3ccc4nnn(CCOc5ncccn5)c(=O)c4c3)cc2)CC1 [II-50, 1-(4-(4-oxo-3-(2-(pyrimidin-2-yloxy)ethyl)-3,4-dihydrobenzo[d][1,2,3]triazin-6-yl)phenyl)cyclopropanecarbonitrile] | 165 min | 30% | 49 min | 159 min
11 | Cc1nonc1Cn1cnc2ccc(-c3ccc(OC(F)(F)F)cc3)cc2c1=O [IV-3, 3-((4-methyl-1,2,5-oxadiazol-3-yl)methyl)-6-(4-(trifluoromethoxy)phenyl)quinazolin-4(3H)-one] | 366 min | 37% | 219 min | 54 min
12 | O=c1c2cc(-c3ccc(OC(F)(F)F)cc3)ccc2nnn1CCn1cccn1 [II-13, 3-(2-(1H-pyrazol-1-yl)ethyl)-6-(4-(trifluoromethoxy)phenyl)benzo[d][1,2,3]triazin-4(3H)-one] | 149 min | 67% | 25 min | 36 min
13 | COc1ncc(-c2cnn(CCn3ncc4ccc(-c5ccc(OC(F)(F)F)cc5)cc4c3=O)c2)cn1 [III-34, 2-(2-(4-(2-methoxypyrimidin-5-yl)-1H-pyrazol-1-yl)ethyl)-7-(4-(trifluoromethoxy)phenyl)phthalazin-1 (2H)-one] | 50 min |  | 41 min | 46 min
14 | Cc1noc(Cn2nnc3ccc(-c4ccc(Oc5ccc(Cl)cc5)cc4)cc3c2=O)n1 [II-16, 6-(4-(4-chlorophenoxyl)phenyl)-3-((3-methyl-1,2,4-oxadiazol-5-yl)methyl)benzo[d][1,2,3]triazin-4(3H)-one] | 74 min | 76% | 102 min | 31 min
15 | O=C(Nc1ccccc1)N1CCc2ccc(-c3ccc(C(F)(F)F)cc3)cc2C1 [IX-42, N-phenyl-7-(4-(trifluoromethyl)phenyl)-3,4-dihydroisoquinoline-2(1H)-carboxamide] |  | 25% |  | 
16 | O=C(N1CCc2ccc(-c3ccc(C(F)(F)F)cc3)cc2C1)N1CC(Oc2cccnc2)C1 [IX-93, (3-(pyridin-3-yloxy)azetidin-1-yl)(7-(4-(trifluoromethyl)phenyl)-3,4-dihydroisoquinolin-2(1H)-yl)methanone] |  | 15% |  | 
17 | Cn1c(CCn2ncc3ccc(-c4ccc(OC(F)(F)F)cc4)cc3c2=O)nc2ccccc21 [III-25, 2-(2-(1-methyl-1H-benzo[d]imidazol-2-yl)ethyl)-7-(4-(trifluoromethoxy)phenyl)phthalazin-1 (2H)-one] |  | 16% |  | 
18 | Cc1nn(C)c(C)c1C(=O)N1CCc2ccc(-c3ccc(C(F)(F)F)cc3)cc2C1 [IX-26, (7-(4-(trifluoromethyl)phenyl)-3,4-dihydroisoquinolin-2(1H)-yl)(1,3,5-trimethyl-1H-pyrazol-4-yl)methanone] |  | 15% |  | 
19 | CC(c1nc(C2CC2)no1)n1nnc2ccc(-c3ccc(OC(F)(F)F)cc3)cc2c1=O (stereo not shown) [II-79, 3-(1-(3-cyclopropyl-1,2,4-oxadiazol-5-yl)ethyl)-6-(4-(trifluoromethoxy)phenyl)benzo[d][1,2,3]triazin-4(3H)-one] |  | 54% |  | 
20 | O=C1c2cc(-c3ccc(C(F)(F)F)cc3F)ccc2OCN1Cc1ccccc1 [VIII-22, 3-benzyl-6-(2-fluoro-4-(trifluoromethyl)phenyl)-2H-benzo[e][1,3]oxazin-4(3H)-one] |  | 45% |  | 
21 | O=C(NC1CC1)N1CCc2ccc(-c3ccc(C(F)(F)F)cc3)cc2C1 [IX-44, N-cyclopropyl-7-(4-(trifluoromethyl)phenyl)-3,4-dihydroisoquinoline-2(1H)-carboxamide] |  | 27% |  | 
22 | O=C(c1ccncn1)N1CCc2ccc(-c3ccc(C(F)(F)F)cc3)cc2C1 [IX-32, pyrimidin-4-yl(7-(4-(trifluoromethyl)phenyl)-3,4-dihydroisoquinolin-2(1H)-yl)methanone] |  | 29% |  | 
23 | Cc1nc(Cn2nnc3ccc(-c4ccc(OC(F)(F)F)cc4)cc3c2=O)oc1C [II-23, 3-((4,5-dimethyloxazol-2-yl)methyl)-6-(4-(trifluoromethoxy)phenyl)benzo[d][1,2,3]triazin-4(3H)-one] |  | 23% |  | 

Source: patent US20150329558A1, “FUSED HETEROCYCLIC COMPOUNDS AS ION CHANNEL MODULATORS” (Gilead Sciences, Inc., priority 2011, published 2015)
